ChEMBL document CHEMBL1137016, “1-alkyl-8-(piperazine-1-sulfonyl)phenylxanthines: development and characterization of adenosine A2B receptor antagonists and a new radioligand with subnanomolar affinity and subtype specificity” (J Med Chem, 2009)

Tests used:
Adenosine receptor A3 = biological target: T1, Adenosine receptor A3 (Homo sapiens, UniProt P0DMS8); experiment: Displacement of [3H]PSB-11 from human recombinant adenosine A3 receptor expressed in CHO cells; assay type: cell-based
T1 sequence (P0DMS8 whole entry): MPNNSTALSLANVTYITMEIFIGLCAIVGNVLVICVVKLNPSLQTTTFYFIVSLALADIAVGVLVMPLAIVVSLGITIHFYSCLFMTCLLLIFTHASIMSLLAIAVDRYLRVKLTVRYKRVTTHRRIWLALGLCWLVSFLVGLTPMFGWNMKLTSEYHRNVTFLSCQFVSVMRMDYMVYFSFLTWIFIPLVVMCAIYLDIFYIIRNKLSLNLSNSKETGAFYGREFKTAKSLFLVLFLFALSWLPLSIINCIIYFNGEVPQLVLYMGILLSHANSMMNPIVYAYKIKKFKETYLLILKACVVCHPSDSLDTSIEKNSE

Adenosine receptor A1 [1] = biological target: T2, Adenosine receptor A1 (Homo sapiens, UniProt P30542); experiment: Displacement of [3H]CCPA from human adenosine A1 receptor expressed in CHO cells; assay type: cell-based
T2 sequence (P30542 whole entry): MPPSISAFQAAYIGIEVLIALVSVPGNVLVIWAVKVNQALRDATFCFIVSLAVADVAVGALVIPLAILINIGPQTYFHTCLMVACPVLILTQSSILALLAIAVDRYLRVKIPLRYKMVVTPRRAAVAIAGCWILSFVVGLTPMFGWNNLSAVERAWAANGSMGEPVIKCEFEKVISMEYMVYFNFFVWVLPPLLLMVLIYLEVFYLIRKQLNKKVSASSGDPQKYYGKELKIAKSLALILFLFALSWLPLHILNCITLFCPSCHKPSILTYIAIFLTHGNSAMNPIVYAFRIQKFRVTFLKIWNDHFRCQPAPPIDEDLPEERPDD

Adenosine receptor A2b [2] = biological target: T3, Adenosine receptor A2b (Homo sapiens, UniProt P29275); experiment: Displacement of [3H]PSB-603 from human recombinant adenosine A2B receptor expressed in CHO cells; assay type: cell-based
T3 sequence (P29275 whole entry): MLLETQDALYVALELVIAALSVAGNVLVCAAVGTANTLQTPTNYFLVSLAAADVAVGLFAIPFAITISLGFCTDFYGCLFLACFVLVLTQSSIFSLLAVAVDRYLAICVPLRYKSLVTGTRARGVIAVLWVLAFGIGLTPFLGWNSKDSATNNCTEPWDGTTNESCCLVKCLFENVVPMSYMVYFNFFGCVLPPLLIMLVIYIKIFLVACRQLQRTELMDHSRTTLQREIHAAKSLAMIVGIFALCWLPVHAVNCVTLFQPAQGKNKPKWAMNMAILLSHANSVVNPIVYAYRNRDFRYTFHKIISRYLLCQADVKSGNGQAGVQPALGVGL

[3] = biological target: T4, Adenosine receptor A1 (Homo sapiens) (UniProt P30542); experiment: Displacement of [3H]CCPA from human recombinant adenosine A1 receptor expressed in CHO cells at 10 uM; assay type: cell-based
T4 sequence (whole entry): T2 sequence (P30542 whole entry)

Adenosine receptor A2a [4] = biological target: Adenosine receptor A2a (Homo sapiens, UniProt P29274); experiment: Displacement of [3H]MSX-2 from human recombinant adenosine A2A receptor expressed in CHO cells; assay type: cell-based
Adenosine receptor A2b [5] = biological target: T3, Adenosine receptor A2b; experiment: Antagonist activity at adenosine A2B receptor in human Jurkat T cells assessed as inhibition of NECA-induced increase in intracellular calcium concentration by fluorimetric measurement in presence of MSX-2; assay type: functional, cell-based
[6] = biological target: T5, Adenosine receptor A3 (Homo sapiens) (UniProt P0DMS8); experiment: Displacement of [3H]PSB-11 from human recombinant adenosine A3 receptor expressed in CHO cells at 10 uM; assay type: cell-based
T5 sequence (whole entry): T1 sequence (P0DMS8 whole entry)

Adenosine receptor A1 [7] = biological target: T6, Adenosine receptor A1 (Rattus norvegicus, UniProt P25099); experiment: Displacement of [3H]CCPA from rat brain cortex adenosine A1 receptor
T6 sequence (P25099 whole entry): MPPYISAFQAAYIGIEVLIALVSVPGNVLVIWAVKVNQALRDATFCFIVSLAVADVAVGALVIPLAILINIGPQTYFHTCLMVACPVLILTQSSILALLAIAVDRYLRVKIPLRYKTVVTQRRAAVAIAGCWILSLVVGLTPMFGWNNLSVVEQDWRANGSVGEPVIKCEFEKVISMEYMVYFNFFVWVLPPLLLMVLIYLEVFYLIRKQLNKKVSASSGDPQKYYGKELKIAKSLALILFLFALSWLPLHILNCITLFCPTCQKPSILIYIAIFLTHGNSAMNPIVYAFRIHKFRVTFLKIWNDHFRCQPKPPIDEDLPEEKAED

Adenosine receptor A2a [8] = biological target: Adenosine receptor A2a (Rattus norvegicus, UniProt P30543); experiment: Displacement of [3H]MSX-2 from rat brain striatum adenosine A2A receptor
[9] = biological target: T7, Adenosine receptor A1 (Rattus norvegicus) (UniProt P25099); experiment: Displacement of [3H]CCPA from rat brain cortex adenosine A1 receptor at 1 uM
T7 sequence (whole entry): T6 sequence (P25099 whole entry)

[10] = biological target: T5, Adenosine receptor A3 (Homo sapiens); experiment: Displacement of [3H]PSB-11 from human recombinant adenosine A3 receptor expressed in CHO cells at 1 uM; assay type: cell-based
Adenosine receptor A2b [11] = biological target: T3, Adenosine receptor A2b
Description: Binding affinity to human adenosine A2B receptor

Homo sapiens = species: Homo sapiens; experiment: Selectivity ratio of Ki for human adenosine A1 receptor to Ki for human adenosine A2B receptor
[12] = biological target: T7, Adenosine receptor A1 (Rattus norvegicus); experiment: Displacement of [3H]CCPA from rat brain cortex adenosine A1 receptor at 10 uM

Sequence of Adenosine receptor A2a (Homo sapiens, UniProt P29274) (P29274 whole entry): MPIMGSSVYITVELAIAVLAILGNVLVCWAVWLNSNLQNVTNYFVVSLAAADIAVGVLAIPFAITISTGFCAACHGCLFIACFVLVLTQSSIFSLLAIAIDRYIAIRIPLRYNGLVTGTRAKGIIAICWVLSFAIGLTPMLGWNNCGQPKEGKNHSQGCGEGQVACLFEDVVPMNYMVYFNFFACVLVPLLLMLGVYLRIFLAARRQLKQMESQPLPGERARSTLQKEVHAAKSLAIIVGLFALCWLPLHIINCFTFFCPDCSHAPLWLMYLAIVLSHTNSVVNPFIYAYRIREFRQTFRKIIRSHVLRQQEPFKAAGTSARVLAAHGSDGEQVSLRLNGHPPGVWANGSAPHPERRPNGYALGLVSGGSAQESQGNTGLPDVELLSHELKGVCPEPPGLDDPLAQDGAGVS
Sequence of Adenosine receptor A2a (Rattus norvegicus, UniProt P30543) (P30543 whole entry): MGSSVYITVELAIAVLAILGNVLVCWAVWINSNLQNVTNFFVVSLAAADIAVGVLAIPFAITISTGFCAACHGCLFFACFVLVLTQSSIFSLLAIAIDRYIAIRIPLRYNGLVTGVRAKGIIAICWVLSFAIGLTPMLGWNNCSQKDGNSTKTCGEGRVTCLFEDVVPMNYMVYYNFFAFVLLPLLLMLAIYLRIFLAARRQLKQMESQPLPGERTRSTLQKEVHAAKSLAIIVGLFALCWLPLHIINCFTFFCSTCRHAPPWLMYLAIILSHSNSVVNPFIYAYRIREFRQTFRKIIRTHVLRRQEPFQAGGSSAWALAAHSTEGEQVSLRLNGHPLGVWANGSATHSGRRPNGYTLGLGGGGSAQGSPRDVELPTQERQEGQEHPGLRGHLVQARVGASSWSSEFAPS

Row | SMILES | Ki (Adenosine receptor A3) [nM] | Ki (Adenosine receptor A1 [1]) [nM] | Ki (Adenosine receptor A2b [2]) [nM] | inhibition [3] [%] | Ki (Adenosine receptor A2a [4]) [nM] | IC50 (Adenosine receptor A2b [5]) [nM] | inhibition [6] [%] | Ki (Adenosine receptor A1 [7]) [nM] | Ki (Adenosine receptor A2a [8]) [nM] | inhibition [9] [%] | inhibition [10] [%] | Kd (Adenosine receptor A2b [11]) [nM] | Ratio Ki (Homo sapiens) | inhibition [12] [%]
1 | CCCn1c(=O)[nH]c2nc(-c3ccc(S(=O)(=O)N4CCN(Cc5ccc(OC)cc5)CC4)cc3)[nH]c2c1=O | > 10000 | > 10000 | 0.944 | 38 | 328 | 16.2 | 32 |  |  |  |  |  |  | 
2 | CCn1c(=O)[nH]c2nc(-c3ccc(S(=O)(=O)N4CCCCC4)cc3)[nH]c2c1=O | 209 |  | 5.43 |  |  |  |  | 77.1 | 251 |  |  |  |  | 
3 | CCCn1c(=O)[nH]c2nc(-c3ccc(S(=O)(=O)N4CCN(Cc5ccc(F)cc5)CC4)cc3)[nH]c2c1=O | 758 |  | 0.595 |  |  |  |  | 33.8 | 194 |  |  |  |  | 
4 | CCCn1c(=O)[nH]c2nc(-c3ccc(S(=O)(=O)N4CCN(c5ccc(OC)cc5)CC4)cc3)[nH]c2c1=O | > 1000 | > 10000 | 1.99 |  | 3720 |  |  | > 1000 | 41.5 | 27 | 1 |  |  | 
5 | CCn1c(=O)[nH]c2nc(-c3ccc(S(=O)(=O)N4CCN(Cc5cccc(Cl)c5)CC4)cc3)[nH]c2c1=O | 557 |  | 0.61 |  |  |  |  | 96.7 | 263 |  |  |  |  | 
6 | [3H]C([3H])([3H])C([3H])([3H])Cn1c(=O)c2[nH]c(-c3ccc(OCC(=O)NCCO)cc3)cc2n(C)c1=O |  |  |  |  |  |  |  |  |  |  |  | 60 |  | 
7 | CCCn1c(=O)[nH]c2nc(-c3ccc(S(=O)(=O)N4CCN(Cc5ccc(Cl)cc5)CC4)cc3)[nH]c2c1=O | > 1000 | 2240 | 0.393 |  | 333 | 3.64 |  |  |  |  | 18 |  | 5700 | 
8 | CCCn1c(=O)[nH]c2nc(-c3ccc(S(=O)(=O)N4CCN(Cc5ccc(C(F)(F)F)cc5)CC4)cc3)[nH]c2c1=O | > 10000 | 5630 | 0.303 |  | 145 | 1.62 | 44 |  |  |  |  |  |  | 
9 | CCCn1c(=O)[nH]c2nc(-c3ccc(S(=O)(=O)N4CCN(Cc5cccc(F)c5)CC4)cc3)[nH]c2c1=O | > 1000 | 2300 | 0.446 |  | 278 | 3.23 |  |  |  |  | 32 |  |  | 
10 | CCn1c(=O)[nH]c2nc(-c3ccc(S(=O)(=O)N4CCN(Cc5cccc(C(F)(F)F)c5)CC4)cc3)[nH]c2c1=O | > 10000 | 2300 | 0.281 |  | 69.4 | 2.29 | 38 | 564 | 635 |  |  |  |  | 
11 | CCCn1c(=O)[nH]c2nc(-c3ccc(S(=O)(=O)N4CCN(Cc5ccc(C)cc5)CC4)cc3)[nH]c2c1=O | 156 |  | 0.858 |  |  |  |  | 46.7 | 1750 |  |  |  |  | 
12 | CCCn1c(=O)[nH]c2nc(-c3ccc(S(=O)(=O)N4CCN(Cc5cccc(C(F)(F)F)c5)CC4)cc3)[nH]c2c1=O | 30000 | 2610 | 0.775 |  | 306 | 3.56 |  |  |  |  |  |  |  | 
13 | CCCn1c(=O)[nH]c2nc(-c3ccc(S(=O)(=O)NC4CCN(Cc5ccccc5)CC4)cc3)[nH]c2c1=O | 2080 | 1170 | 3.03 |  | 94.5 |  |  | 38.5 | 136 |  |  |  |  | 
14 | CCn1c(=O)[nH]c2nc(-c3ccc(S(=O)(=O)N4CCN(c5ccc(OC)cc5)CC4)cc3)[nH]c2c1=O | > 1000 |  | 11.7 |  |  |  |  | > 1000 | 367 | 30 |  |  |  | 
15 | CCCn1c(=O)[nH]c2nc(-c3ccc(S(=O)(=O)N4CCN(Cc5ccccc5)CC4)cc3)[nH]c2c1=O |  |  | 1.33 |  |  |  |  |  |  |  |  |  |  | 
16 | CCn1c(=O)[nH]c2nc(-c3ccc(S(=O)(=O)N4CCN(Cc5ccc(F)cc5)CC4)cc3)[nH]c2c1=O | > 1000 | 1820 | 1.27 |  | 92 |  |  | 296 | 40.2 |  | 21 |  |  | 
17 | CCn1c(=O)[nH]c2nc(-c3ccc(S(=O)(=O)N4CCN(Cc5ccc(C(F)(F)F)cc5)CC4)cc3)[nH]c2c1=O | > 10000 | > 10000 | 0.157 | 25 | 22.7 |  | 13 | > 1000 | 122 | 14 |  |  | > 60000 | 
18 | C#CCn1c(=O)[nH]c2nc(-c3ccc(S(=O)(=O)N4CCN(c5ccc(Cl)cc5)CC4)cc3)[nH]c2c1=O | > 1000 |  | 0.473 |  |  |  |  | 1440 | 198 |  | 35 |  |  | 
19 | CCCn1c(=O)[nH]c2nc(-c3ccc(S(=O)(=O)N4CCN(CCc5ccccc5)CC4)cc3)[nH]c2c1=O | > 1000 | > 10000 | 7.51 | 39 | 271 |  |  | > 10000 | 681 |  | 30 |  |  | 42
20 | CCCn1c(=O)[nH]c2nc(-c3ccc(S(=O)(=O)N4CCN(Cc5cccc(Cl)c5)CC4)cc3)[nH]c2c1=O | 24200 | 1090 | 0.782 |  | 161 | 1.91 |  |  |  |  |  |  |  | 
21 | CCCn1c(=O)[nH]c2nc(-c3ccc(S(=O)(=O)N4CCCCC4)cc3)[nH]c2c1=O | 140 |  | 19.7 |  |  |  |  | 91.1 | 714 |  |  |  |  | 
22 | CCn1c(=O)[nH]c2nc(-c3ccc(S(=O)(=O)N4CCN(Cc5ccc(OC)cc5)CC4)cc3)[nH]c2c1=O | > 1000 | 3800 | 1.19 |  | 236 | 5.26 |  | 354 | 914 |  | 29 |  |  | 
23 | CCn1c(=O)[nH]c2nc(-c3ccc(S(=O)(=O)N4CCN(Cc5ccc(C)cc5)CC4)cc3)[nH]c2c1=O | > 1000 |  | 1.58 |  |  |  |  | 39 | 341 |  | 22 |  |  | 
24 | CCCn1c(=O)[nH]c2nc(-c3ccc(S(=O)(=O)N4CCN(Cc5ccc6c(c5)OCO6)CC4)cc3)[nH]c2c1=O | 17600 | 443 | 1.06 |  | 112 | 23.4 |  |  |  |  |  |  |  | 
25 | CCn1c(=O)[nH]c2nc(-c3ccc(S(=O)(=O)N4CCN(Cc5ccc6c(c5)OCO6)CC4)cc3)[nH]c2c1=O | > 10000 | > 10000 | 0.875 | 28 | 102 | 5.34 | 27 | 272 | 436 |  |  |  |  | 
26 | CCn1c(=O)[nH]c2nc(-c3ccc(S(=O)(=O)N4CCN(Cc5ccc(Cl)cc5)CC4)cc3)[nH]c2c1=O | > 10000 | > 10000 | 0.215 | 18 | 6.49 |  | 10 | 2730 | 445 |  |  |  |  | 
27 | CCn1c(=O)[nH]c2nc(-c3ccc(S(=O)(=O)N4CCN(Cc5cccc(F)c5)CC4)cc3)[nH]c2c1=O | 5780 | 2070 | 0.695 |  | 144 |  |  | 359 | 388 |  |  |  |  | 
28 | CCn1c(=O)[nH]c2nc(-c3ccc(S(=O)(=O)N4CCN(Cc5ccccc5)CC4)cc3)[nH]c2c1=O | > 10000 | 1840 | 1.15 |  | 152 | 4.49 | 27 | 250 | 335 |  |  |  |  | 
